# Results as given in patent US9365502B2, “Neuroactive substituted cyclopenta[b]phenanthrenes as modulators for GABA type-A receptors” (priority 2013, dated 2016).
# Like-named read-outs stand apart in the source and are kept apart here.
# Key:
# [1] = molecular target: rat α1β2γ2L type GABAA receptors expressed in Xenopus laevis oocytes (Rattus norvegicus (Rat), UniProt P62813+P63138, INS375LLRMFSFK); test: Potentiation of GABA-mediated chloride currents, oocyte electrophysiology; type: cell-based; conditions: ± SEM; for Oocyte electrophysiology 0.1 μM (ratio of currents in presence/absence of compound): 0.1 μM compound; for Oocyte electrophysiology 0.1 μM (ratio of currents in presence/absence of compound) / Oocyte electrophysiology 1.0 μM (ratio of currents in presence/absence of compound) / Oocyte electrophysiology 10 μM (ratio of currents in presence/absence of compound): 2 μM GABA, N>=4; for Oocyte electrophysiology 1.0 μM (ratio of currents in presence/absence of compound): 1.0 μM compound; for Oocyte electrophysiology (gating) 10 μM (ratio of compound only current/2 μM GABA current): 10 μM compound in the absence of GABA; for Oocyte electrophysiology 10 μM (ratio of currents in presence/absence of compound): 10 μM compound
# Protocol: The compounds of the present disclosure were evaluated for the ability to potentiate chloride currents mediated by 2 μM GABA at rat α1β2γ2L type GABAA receptors expressed in Xenopus laevis oocytes and the results are shown in Table 2.
# The GABA concentration used for the control response was 2 μM. Each compound was evaluated on at least four different oocytes at the concentrations indicated, and the results reported are the ratio of currents measured in the presence/absence of added compound. Gating represents direct current gated by 10 μM compound in the absence of GABA, and this current is reported as the ratio of compound only current/2 μM GABA current. Error limits are calculated as standard error of the mean (N≧4). Methods used are known in the art (see Jiang, X., et al.).
# [2] = molecular target: picrotoxin binding site on GABAA receptors; test: [35S]-TBPS displacement (inhibition of [35S]-TBPS binding); conditions: mean ± SEM, duplicate experiments performed in triplicate
# Protocol: The IC50 values for non-competitive displacers of [^35S]-TBPS from the picrotoxin binding site on GABAA receptors are reported in Table 1.
# Results presented are from duplicate experiments performed in triplicate. Error limits are calculated as standard error of the mean. Methods used are known in the art (see Jiang, X., et al., Neurosteroid analogues. 9. Conformationally constrained pregnanes: structure-activity studies of 13,24-cyclo-18,21-dinorcholane analogues of the GABA modulatory and anesthetic steroids (3α,5α)- and […]. J. Med. Chem., 46: 5334-48 (2003)—the contents of which are hereby incorporated by reference in their entirety).
# [3] = system: Tadpole; test: Tadpole loss of righting (LRR) and loss of swimming (LSR) reflexes; type: in vivo; conditions: ± SEM
# Protocol: Table 3 discloses the anesthetic effects of the compounds of the present disclosure. In particular, the anesthetic effect of the compounds of the present disclosure on Loss of Righting Reflex (LRR) and Loss of Swimming Reflex (LSR).
# Methods used are known in the art (see Jiang, X., et al.). Error limits are calculated as standard error of the mean (N=10 or more animals at each of five or more different concentrations).
# [4] = loss of righting reflex, read-out: Tadpole LRR EC50
# [5] = loss of swimming reflex, read-out: Tadpole LSR EC50
SMILES,Oocyte electrophysiology 0.1 μM (ratio of currents in presence/absence of compound) [1],Oocyte electrophysiology 1.0 μM (ratio of currents in presence/absence of compound) [1],Oocyte electrophysiology (gating) 10 μM (ratio of compound only current/2 μM GABA current) [1],Oocyte electrophysiology 10 μM (ratio of currents in presence/absence of compound) [1],IC50 [2],"EC50 [3, 4]","EC50 [3, 5]"
C[C@]12CC(=O)CC1CC1C(CCC3C[C@H](O)CCC31)C2 (stereo partly shown) [MQ-48],1.03 ± 0.01,1.64 ± 0.06,0.01 ± 0.0,7.10 ± 1.51,0.282 ± 0.197 µM,2.39 ± 0.28 µM,7.49 µM
C[C@@]12CC[C@H](O)C[C@@H]1CC[C@@H]1C[C@]3(C)C(=O)CCC3C[C@H]12 (stereo partly shown) [MQ-83],0.85 ± 0.07,1.03 ± 0.06,0.1 ± 0.2,6.35 ± 0.81,0.748 ± 0.103 µM,2.19 ± 0.44 µM,5.48 ± 0.12 µM
CC(=O)[C@H]1CCC2CC3C(CCC4C[C@H](O)CCC43)C[C@@]21C (stereo partly shown) [MQ-39],1.32 ± 0.03,3.82 ± 0.36,0.03 ± 0.0,7.91 ± 0.64,0.065 ± 0.007 µM,0.34 µM,1.07 µM
C[C@@]12CC3CCC4C[C@H](O)CCC4C3CC1CC[C@]21CO1 (stereo partly shown) [MQ-54],1.01 ± 0.05,4.03 ± 0.31,0.05 ± 0.01,11.41 ± 1.18,1.99 µM,3.34 ± 0.11 µM,5.48 ± 0.2 µM
C[C@]12C[C@H]3CC[C@@H]4C[C@@H](O)CC[C@H]4[C@@H]3C[C@@H]1CC[C@@H]2[N+](=O)[O-] [MQ-33],1.68 ± 0.10,5.30 ± 0.75,0.02 ± 0.01,9.08 ± 1.83,0.062 ± 0.006 µM,0.24 ± 0.01 µM,0.55 ± 0.01 µM
C[C@@]12CC[C@H](O)C[C@H]1CC[C@@H]1C[C@]3(C)C(C#N)=CCC3CC12 (stereo partly shown) [MQ-86],2.25 ± 0.11,10.95 ± 1.05,0.16 ± 0.03,19.64 ± 2.06,0.043 ± 0.003 µM,0.38 ± 0.05 µM,0.55 ± 0.01 µM
C[C@@]12CC3CCC4C[C@H](O)CCC4C3CC1CC[C@H]2C#N (stereo partly shown) [MQ-49],0.92 ± 0.01,1.02 ± 0.01,0.02 ± 0.01,1.86 ± 0.06,1.58 µM,2.4 ± 0.76 µM,5.48 ± 0.12 µM
C[C@@]12CC3CC[C@H]4C[C@H](O)CCC4C3CC1CCC2=O (stereo partly shown) [MQ-47],1.10 ± 0.20,1.50 ± 0.28,−0.01 ± 0.03,6.42 ± 1.11,1.33 µM,3.76 ± 5.22 µM,> 10 µM
CC(=O)[C@@H]1CC[C@@H]2C[C@H]3[C@@H](CC[C@H]4C[C@H](O)CC[C@@H]43)C[C@]21C [MQ-50],1.02 ± 0.01,1.18 ± 0.02,0.0 ± 0.0,1.98 ± 0.07,1.06 µM,2.01 ± 1.3 µM,10 µM
C[C@]12C[C@H]3CCC4C[C@@H](O)CC[C@H]4[C@@H]3C[C@@H]1CCC2=O (stereo partly shown) [MQ-36],1.11 ± 0.09,1.22 ± 0.05,−0.06 ± 0.06,3.81 ± 0.45,1.73 µM,7.9 ± 4.45 µM,> 30 µM
C[C@@]12CC[C@H](O)C[C@H]1CC[C@@H]1C[C@@]3(C)C(CC[C@@H]3C#N)CC12 (stereo partly shown) [MQ-87],1.93 ± 0.14,10.95 ± 0.55,0.04 ± 0.01,16.10 ± 0.87,0.014 ± 0.002 µM,0.1 ± 0.01 µM,0.33 µM
C[C@]12C[C@H]3CC[C@@H]4C[C@@H](O)CC[C@H]4[C@@H]3C[C@@H]1CC[C@@H]2C#N [MQ-38],1.51 ± 0.19,6.92 ± 1.29,0.51 ± 0.48,12.50 ± 1.98,0.052 ± 0.007 µM,0.38 ± 0.06 µM,0.87 µM
C[C@@]12C[C@@H]3CC[C@@H]4C[C@H](O)CC[C@@H]4[C@H]3C[C@H]1CCC2=O [MQ-51],0.97 ± 0.03,1.02 ± 0.02,0.08 ± 0.08,1.59 ± 0.11,5.86 µM,> 10 µM,> 10 µM
C[C@]12C[C@H]3CC[C@@H]4C[C@@H](O)CC[C@H]4[C@@H]3C[C@@H]1CC/C2=C\C#N [MQ-32],1.64 ± 0.02,3.21 ± 0.13,0.12 ± 0.01,8.77 ± 1.65,0.147 ± 0.009 µM,0.36 ± 0.13 µM,1.07 µM
C[C@]12C[C@H]3CC[C@@H]4C[C@@H](O)CC[C@H]4[C@@H]3C[C@@H]1CC/C2=C/C#N [MQ-31],1.49 ± 0.09,3.93 ± 0.20,0.02 ± 0.02,8.25 ± 0.71,0.061 ± 0.004 µM,0.43 ± 0.08 µM,1.04 µM
C[C@]12C[C@H]3CC[C@@H]4C[C@@H](O)CCC4C3CC1CC[C@@]21CO1 (stereo partly shown) [MQ-37],1.91 ± 0.17,16.12 ± 2.24,0.54 ± 0.44,27.57 ± 5.45,0.046 ± 0.004 µM,0.16 µM,0.54 ± 0.01 µM
